{"source": "patent US20030125319A1", "about": "“Methods for assessing, improving, or maintaining urogenital health in postmenopausal women” (priority 2000, published 2003)", "tested_on": "postmenopausal women", "test": "Self-assessment questionnaire (subjective vaginal health questionnaire) in postmenopausal women taking the estrogen agonist/antagonist", "type": "in vivo, human", "conditions": "self-reported by postmenopausal women taking the compound", "procedure": "The subject self-assessment of vaginal health is performed with a subjective vaginal health questionnaire. Typically, the questionnaire is performed in private and the results kept confidential. The questionnaire may include an envelope that is specially encoded to later identify the treatment that the subject is undergoing. An additional question may be added in subsequent questionnaires following administration of the baseline questionnaire, which question would ask: “Have you had any positive or negative vaginal changes since you have been taking the study medication?” This question may be coupled to a multiple-point ratings scale ranging from “mostly positive changes,” to “moderately positive changes,” to “mildly positive changes,” to “no changes,” to “mildly negative changes,” to “moderately negative changes,” to “mostly negative changes.”"}
{"smiles": "O=C(O)C(O)C(O)C(=O)O.Oc1ccc2c(c1)CC[C@H](c1ccccc1)[C@@H]2c1ccc(OCCN2CCCC2)cc1", "note": "[(−)-cis-6-phenyl-5-[4-(2-pyrrolidin-1-yl-ethoxy)-phenyl]-5,6,7,8-tetrahydro-naphthalene-2-ol, D-tartrate salt]", "values": [{"measurement": "frequency of sexual intercourse", "value": "increased frequency"}, {"measurement": "intensity of orgasms", "value": "increased intensity"}, {"measurement": "number of orgasms", "value": "increased number"}]}
